Here are results for 19 compounds from patent US10118918B2, “PRMT5 inhibitors and uses thereof” (Epizyme, Inc., priority 2012, dated 2018).

Read-outs that look alike come from different tables or passages of the source.

For one assay, the target named is PRMT5/MEP50 (Homo sapiens (Human), UniProt O14744). The assay can be described thus: PRMT5 Biochemical Assay (PRMT5/MEP50 enzyme assay on peptide substrate, 3H-SAM Flashplate). The conditions noted are these: PRMT5/MEP50 4 nM, 3H-SAM 75 nM, peptide 40 nM. The source says: S-adenosylmethionine (SAM), S-adenosylhomocysteine (SAH), bicine, KCl, Tween20, dimethylsulfoxide (DMSO), bovine skin gelatin (BSG), and Tris(2-carboxyethyl)phosphine hydrochloride solution (TCEP) were purchased from Sigma-Aldrich at the highest level of purity possible. ^3H-SAM was purchase from American Radiolabeled Chemicals with a specific activity of 80 Ci/mmol. 384-well streptavidin Flashplates were purchased from PerkinElmer.
Peptide representative of human histone H4 residues 1-15 was synthesized with a C-terminal linker-affinity tag motif and a C-terminal amide cap by 21st Century Biochemicals. The peptide was high high-performance liquid chromatography (HPLC) purified to greater than 95% purity and confirmed by liquid chromatography mass spectrometry (LC-MS). The sequence was Ac-[…][K-Biot]-amide (SEQ ID NO.: 3).
Full-length human PRMT5 (NM_006109.3) transcript variant 1 clone was amplified from a fetal brain cDNA library, incorporating flanking 5′ sequence encoding a FLAG tag ([…]) (SEQ ID NO.: 4) fused directly to Ala 2 of PRMT5. Full-length human MEP50 (NM_024102) clone was amplified from a human testis cDNA library incorporating a 5′ sequence encoding a 6-histidine tag (MHHHHHH) (SEQ ID NO.: 5) fused directly to Arg 2 of MEP50. The amplified genes were sublconed into pENTR/D/TEV (Life Technologies) and subsequently transferred by Gateway™ attL x attR recombination to pDEST8 baculvirus expression vector (Life Technologies).
Recombinant baculovirus and Baculovirus-Infected Insect Cells (BIIC) were generated according to Bac-to-Bac kit instructions (Life Technologies) and Wasilko, 2006, respectively. Protein over-expression was accomplished by infecting exponentially growing Spodoptera frugiperda (SF9) cell culture at 1.2×10^6 cell/ml with a 5000 fold dilution of BIIC stock. Infections were carried out at 27° C. for 72 hours, harvested by centrifugation, and stored at −80° C. for purification.
Flag-PRMT5/6His-MeP50 was eluted with 300 mM Imidazole in the same buffer. The purity of recovered protein was 87%. Reference: Wasilko, D. J. and S. E. Lee: “TIPS: titerless infected-cells preservation and scale-up” Bioprocess J., 5 (2006), pp. 29-32.
General Procedure for PRMT5/MEP50 Enzyme Assays on Peptide Substrates.
The assays were all performed in a buffer consisting of 20 mM Bicine (pH=7.6), 1 mM TCEP, 0.005% BSG, and 0.002% Tween20, prepared on the day of use. Compounds in 100% DMSO (1 ul) were spotted into a polypropylene 384-well V-bottom plates (Greiner) using a Platemate Plus outfitted with a 384-channel head (Thermo Scientific). DMSO (1 ul) was added to Columns 11, 12, 23, 24, rows A-H for the maximum signal control and 1 ul of SAH, a known product and inhibitor of PRMT5/MEP50, was added to columns 11, 12, 23, 24, rows I-P for the minimum signal control. A cocktail (40 ul) containing the PRMT5/MEP50 enzyme and the peptide was added by Multidrop Combi (Thermo-Fisher). The compounds were allowed to incubate with PRMT5/MEP50 for 30 min at 25 degrees Celsius, then a cocktail (10 ul) containing ^3H-SAM was added to initiate the reaction (final volume=51 ul). The final concentrations of the components were as follows: PRMT5/MEP50 was 4 nM, ^3H-SAM was 75 nM, peptide was 40 nM, SAH in the minimum signal control wells was 100 uM, and the DMSO concentration was 1%. The assays were stopped by the addition of non-radioactive SAM (10 ul) to a final concentration of 600 uM, which dilutes the ^3H-SAM to a level where its incorporation into the peptide substrate is no longer detectable. 50 ul of the reaction in the 384-well polypropylene plate was then transferred to a 384-well Flashplate and the biotinylated peptides were allowed to bind to the streptavidin surface for at least 1 hour before being washed three times with 0.1% Tween20 in a Biotek ELx405 plate washer. […]

The test system of assay [1] is symmetric di-methyl arginine in Z-138 cells. The assay can be described thus: Z-138 Methylation Assay (In Cell Western for symmetric di-methyl arginine and DNA content). The conditions noted are these: 96 hours incubation, read-out: ICW EC50. The format is cell-based. The source says: [formula] Where top and bottom are the normally allowed to float, but may be fixed at 100 or 0 respectively in a 3-parameter fit. The Hill Coefficient normally allowed to float but may also be fixed at 1 in a 3-parameter fit. Y is the % inhibition and X is the compound concentration. Z-138 Methylation Assay
Z-138 suspension cells were purchased from ATCC (American Type Culture Collection, Manassas, Va.). RPMI/Glutamax medium, penicillin-streptomycin, heat inactivated fetal bovine serum, and D-PBS were purchased from Life Technologies, Grand Island, N.Y., USA. Odyssey blocking buffer, 800CW goat anti-rabbit IgG (H+L) antibody, and Licor Odyssey infrared scanner were purchased from Licor Biosciences, Lincoln, Nebr., USA. Symmetric di-methyl arginine antibody was purchased from EMD Millipore, Billerica, Mass., USA. 16% Paraformaldehyde was purchased from Electron Microscopy Sciences, Hatfield, Pa., USA.
Z-138 suspension cells were maintained in growth medium (RPMI 1640 supplemented with 10% v/v heat inactivated fetal bovine serum and 100 units/mL penicillin-streptomycin) and cultured at 37° C. under 5% CO2.
Cell Treatment, in Cell Western (ICW) for Detection of Symmetric Di-Methyl Arginine and DNA Content.
Z-138 cells were seeded in assay medium at a concentration of 50,000 cells per mL to a 384-well cell culture plate with 50 μL per well. Compound (100 nL) from 384 well source plates was added directly to 384 well cell plate. Plates were incubated at 37° C., 5% CO2 for 96 hours. After four days of incubation, 40 μL of cells from incubated plates were added to poly-D-lysine coated 384 well culture plates (BD Biosciences 356697). Plates were incubated at room temperature for 30 minutes then incubated at 37° C., 5% CO2 for 5 hours. After the incubation, 40 μL per well of 8% paraformaldehyde in PBS (16% paraformaldahyde was diluted to 8% in PBS) was added to each plate and incubated for 30 minutes. Plates were transferred to a Biotek 405 plate washer and washed 5 times with 100 μL per well of wash buffer (IX PBS with 0.1% Triton X-100 (v/v)). Next 30 μL per well of Odyssey blocking buffer were added to each plate and incubated 1 hour at room temperature. Blocking buffer was removed and 20 μL per well of primary antibody was added (symmetric di-methyl arginine diluted 1:100 in Odyssey buffer with 0.1% Tween 20 (v/v)) and plates were incubated overnight (16 hours) at 4° C. Plates were washed 5 times with 100 μL per well of wash buffer. Next 20 μL per well of secondary antibody was added (1:200 800CW goat anti-rabbit IgG (H+L) antibody, 1:1000 DRAQ5 (Biostatus limited) in Odyssey buffer with 0.1% Tween 20 (v/v)) and incubated for 1 hour at room temperature. The plates were washed 5 times with 100 μL per well wash buffer then 1 time with 100 μL per well of water. Plates were allowed to dry at room temperature then imaged on the Licor Odyssey machine which measures integrated intensity at 700 nm and 800 nm wavelengths. Both 700 and 800 channels were scanned.
First, the ratio for each well was determined by:
Each plate included fourteen control wells of DMSO only treatment (minimum inhibition) as well as fourteen control wells for maximum inhibition treated with 3 μM of a reference compound (Background wells). The average of the ratio values for each control type was calculated and used to determine the percent inhibition for each test well in the plate. Reference compound was serially diluted three-fold in DMSO for a total of nine test concentrations, beginning at 3 μM. Percent inhibition was determined and IC50 curves were generated using triplicate wells per concentration of compound. […]

A further assay concerns Z-138 cells. The assay can be described thus: Z-138 Proliferation Assay (Cell Titer Glo). Particulars: Homo sapiens, 120 h, 5 days incubation. It counts as cell-based. The source says:
[formula] Z-138 Proliferation Assay
Z-138 suspension cells were purchased from ATCC (American Type Culture Collection, Manassas, Va.). RPMI/Glutamax medium, penicillin-streptomycin, heat inactivated fetal bovine serum were purchased from Life Technologies, Grand Island, N.Y., USA. V-bottom polypropylene 384-well plates were purchased from Greiner Bio-One, Monroe, N.C., USA. Cell culture 384-well white opaque plates were purchased from Perkin Elmer, Waltham, Mass., USA. Cell-Titer Glo® was purchased from Promega Corporation, Madison, Wis., USA. SpectraMax M5 plate reader was purchased from Molecular Devices LLC, Sunnyvale, Calif., USA.
Z-138 suspension cells were maintained in growth medium (RPMI 1640 supplemented with 10% v/v heat inactivated fetal bovine serum and cultured at 37° C. under 5% CO2. Under assay conditions, cells were incubated in assay medium (RPMI 1640 supplemented with 10% v/v heat inactivated fetal bovine serum and 100 units/mL penicillin-streptomycin) at 37° C. under 5% CO2.
For the assessment of the effect of compounds on the proliferation of the Z-138 cell line, exponentially growing cells were plated in 384-well white opaque plates at a density of 10,000 cells/ml in a final volume of 50 μl of assay medium. A compound source plate was prepared by performing triplicate nine-point 3-fold serial dilutions in DMSO, beginning at 10 mM (final top concentration of compound in the assay was 20 μM and the DMSO was 0.2%). A 100 nL aliquot from the compound stock plate was added to its respective well in the cell plate. […] After addition of compounds, assay plates were incubated for 5 days at 37° C., 5% CO2, relative humidity >90%.
Cell viability was measured by quantitation of ATP present in the cell cultures, adding 35 μl of Cell Titer Glo® reagent to the cell plates. Luminescence was read in the SpectraMax M5 microplate reader. The concentration of compound inhibiting cell viability by 50% was determined using a 4-parametric fit of the normalized dose response curves.
(In ATP-based viability assays light output follows the ATP content of the culture.)

Chain of PRMT5/MEP50 (O14744 other isoform, or with tags, fused parts or gaps): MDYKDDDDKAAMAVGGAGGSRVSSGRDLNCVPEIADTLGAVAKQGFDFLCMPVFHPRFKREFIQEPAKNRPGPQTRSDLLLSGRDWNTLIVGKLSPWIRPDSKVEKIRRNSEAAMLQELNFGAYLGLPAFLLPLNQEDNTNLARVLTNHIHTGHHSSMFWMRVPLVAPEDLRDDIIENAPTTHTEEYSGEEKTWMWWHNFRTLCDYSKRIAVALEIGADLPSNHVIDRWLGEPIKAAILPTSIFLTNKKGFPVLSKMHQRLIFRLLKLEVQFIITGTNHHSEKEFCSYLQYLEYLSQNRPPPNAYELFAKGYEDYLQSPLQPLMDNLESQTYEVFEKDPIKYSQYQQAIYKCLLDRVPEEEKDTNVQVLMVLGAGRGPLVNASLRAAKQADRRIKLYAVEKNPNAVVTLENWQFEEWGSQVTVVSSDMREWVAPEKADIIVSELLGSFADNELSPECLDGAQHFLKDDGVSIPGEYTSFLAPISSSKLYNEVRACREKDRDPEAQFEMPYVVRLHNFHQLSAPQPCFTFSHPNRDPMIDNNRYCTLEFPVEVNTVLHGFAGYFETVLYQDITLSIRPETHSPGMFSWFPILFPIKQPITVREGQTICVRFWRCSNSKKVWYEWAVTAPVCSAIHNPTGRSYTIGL
Chain of PRMT5/MEP50 (Q9BQA1 other isoform, or with tags, fused parts or gaps partner): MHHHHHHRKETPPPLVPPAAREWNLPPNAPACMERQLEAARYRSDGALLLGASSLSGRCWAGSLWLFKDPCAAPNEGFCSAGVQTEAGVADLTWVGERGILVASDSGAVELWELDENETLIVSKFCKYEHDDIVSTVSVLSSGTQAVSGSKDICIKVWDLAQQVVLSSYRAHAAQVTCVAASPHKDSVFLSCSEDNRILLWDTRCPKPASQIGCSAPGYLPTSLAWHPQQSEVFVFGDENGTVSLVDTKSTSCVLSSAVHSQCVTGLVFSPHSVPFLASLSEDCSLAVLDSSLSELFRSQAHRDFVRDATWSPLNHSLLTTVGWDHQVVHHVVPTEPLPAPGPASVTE

Turning to “2-(2-(1H-pyrazol-3-yl)phenoxy)-N-(2-hydroxy-3-(isoindolin-2-yl)propyl)acetamide [compound 8]”, the IC50 (commonly the point on the concentration scale where inhibition reaches its midpoint) at PRMT5/MEP50 lay in the range of 101 to 1000 nM. Moreover, the EC50 (in general, the concentration needed to bring the measured effect to its halfway point) in assay [1] lay within 101 to 1000 nM.

For the compound `O=C(COc1cccc2cccnc12)NC[C@H](O)CN1Cc2ccccc2C1` [compound 4], the EC50 fell in the range of 1000 to 10000 nM in the assay with Z-138 cells and 101 to 1000 nM in assay [1] (Homo sapiens). `Cn1cnc2ccc(-c3cccc(OCC(O)CN4Cc5ccccc5C4)c3)cc21` (stereo not shown) [compound 9, 1-(isoindolin-2-yl)-3-(3-(1-methyl-1H-benzo[d]imidazol-6-yl)phenoxy)propan-2-ol]: the IC50 on PRMT5/MEP50 lay within 1000 to 10000 nM. For `CC(C)(C)OC(=O)Nc1cccc(C(=O)NCC(O)CN2Cc3ccccc3C2)c1` (stereo not shown) [compound 11, tert-butyl (3-((2-hydroxy-3-(isoindolin-2-yl)propyl)carbamoyl)phenyl)carbamate], the IC50 on PRMT5/MEP50 was 101 to 1000 nM. Also, the EC50 in assay [1] (Homo sapiens) was 1000 to 10000 nM. For the compound `CS(=O)(=O)c1ccccc1OCC(=O)NCC(O)CN1Cc2ccccc2C1` (stereo not shown) [compound 12, N-(2-hydroxy-3-(isoindolin-2-yl)propyl)-2-(2-(methylsulfonyl)phenoxy)acetamide], the IC50 on PRMT5/MEP50 was 101 to 1000 nM. For the same compound, in assay [1] (Homo sapiens), the EC50 is 101 to 1000 nM. For the compound `O=C(COc1cccc2cccnc12)NC[C@@H](O)CN1Cc2ccccc2C1` [compound 16, (R)—N-(2-hydroxy-3-(isoindolin-2-yl)propyl)-2-(quinolin-8-yloxy)acetamide], the IC50 at PRMT5/MEP50 lay in the range of 1000 to 10000 nM. Same read-out and setting: the result for `COc1ccc(Cn2cnc3ccc(-c4ccc(OCC(O)CN5Cc6ccccc6C5)cc4)cc32)cc1` (stereo not shown) [compound 18] reads 1000 to 10000 nM. `OC(COc1cccc(CNC2CCCC2)c1)CN1Cc2ccccc2C1` (stereo not shown) [compound 20, 1-(3-((cyclopentylamino)methyl)phenoxy)-3-(isoindolin-2-yl)propan-2-ol] gave an EC50 with Z-138 cells of 10000 to 50000 nM. Also, the IC50 at PRMT5/MEP50 was in the range of 1000 to 10000 nM. With `CN(C)S(=O)(=O)c1ccccc1OCC(=O)NC[C@@H](O)CN1Cc2ccccc2C1` [compound 21], the EC50 was more than 20000 nM with Z-138 cells and 101 to 1000 nM in assay [1] (Homo sapiens).

For the compound `CN1CCOc2cccc(OCC(=O)NC[C@@H](O)CN3Cc4ccccc4C3)c21` [compound 22], in assay [1] (Homo sapiens), the EC50 lay in the range of 1000 to 10000 nM. For `O=C(NC[C@@H](O)CN1Cc2ccccc2C1)c1cccc(NC2CCOCC2)c1` [compound 24], the IC50 at PRMT5/MEP50 was less than 100 nM. For `O=C(NC[C@H](O)CN1Cc2ccccc2C1)c1cncc(OC2CCOCC2)c1` [compound 31], the concentration giving a half-maximal response (EC50) in assay [1] (Homo sapiens) was in the range of 1000 to 10000 nM. With `CC(=O)N1CCC(Nc2cc(C(=O)NC[C@H](O)CN3Cc4ccccc4C3)ncn2)CC1` [compound 39], the EC50 in the assay with Z-138 cells fell in the range of 101 to 1000 nM. Besides, the IC50 on PRMT5/MEP50 was less than 100 nM. The matching figures for `CC(=O)N1CC(Nc2cc(C(=O)NC[C@H](O)CN3CCc4ccccc43)ncn2)C1` [compound 41]: 10000 to 50000 nM and 1000 to 10000 nM.

Regarding `CC(=O)N1CCC(Nc2cc(C(=O)NC[C@H](O)CN3CCCCc4ccccc43)ccn2)CC1` [compound 51], at PRMT5/MEP50, the IC50 was more than 10000 nM. On the same count and under the same terms, the same measure for `O=C(NCCCN1Cc2ccccc2C1)c1cc(NC2COC2)ncn1` [compound 52]: more than 10000 nM. In the case of `CC(=O)N1CCC(Nc2cc(C(=O)NC[C@H](O)CN3CCCc4ccccc4C3)ccn2)CC1` [compound 53], the IC50 at PRMT5/MEP50 is 1000 to 10000 nM. In addition, in assay [1] (Homo sapiens), the EC50 was more than 1000 nM.

For “N-(2-hydroxy-3-(isoindolin-2-yl)propyl)-3-((tetrahydro-2H-pyran-4-yl)amino)benzamide [compound 6]”, the IC50 on PRMT5/MEP50 is more than 10000 nM. The same measure, in the same setting: the result for “tert-butyl (3-((2-hydroxy-3-(isoindolin-2-yl)propyl)carbamoyl)phenyl)carbamate [compound 2]” reads 1000 to 10000 nM.
